The record followed here is US10124017B2, “Use of Ginsenoside M1 for preventing or treating gout” (priority 2015, dated 2018).

Assay [1] deals with LPS-activated J774A.1 macrophages. Description: LPS-induced NLRP3 and proIL-1β expression in J774A.1 macrophages (Western blot). The conditions noted are these: 1 μg/ml LPS 6 h, FIG. 3. Type of assay: cell-based, mouse. Here is the method:
(§1) The mouse macrophages cell line J774A.1 and human monocytic leukemia cell line THP-1 was obtained from the American Type Culture Collection (Rockville, Md.) and cultured in RPMI 1640 medium supplemented with 10% heat-inactivated fetal bovine serum (FBS) and 2 mM L-glutamine (all from Life Technologies, Carlsbad, Calif.) at 37° C. in a 5% CO2 incubator. To induce monocyte-to-macrophage differentiation, THP-1 cells were cultured for 48 h in RPMI-1640 medium supplemented with 100 nM phorbol 12-myristate 13-acetate (Sigma-Aldrich).
In FIG. 3, J774A.1 macrophages (2×10^6 cells/2 ml medium/dish) were incubated for 30 min with or without Ginsenoside M1, then for 6 h with or without 1 μg/ml LPS (from Escherichia coli 0111:B4, purchased from Sigma, St. Louis, Mo.) in the continued presence or absence of Ginsenoside M1. The levels of NLRP3 and proIL-1β in the cell lysates were measured by Western blot. […]
J774A.1 macrophages were incubated for 30 min with or without Ginsenoside M1, then for 6 h with or without 1 μg/ml LPS in the continued presence or absence of Ginsenoside M1. The levels of NLRP3 and proIL-1β in the cell lysates were measured by Western blot.
(In general: A western blot detects proteins with antibodies after separation by electrophoresis.)

Assay [2] has as its system mouse J774A.1 macrophages. Description: CPPD-induced IL-1β production in LPS-primed J774A.1 macrophages (ELISA). Type of assay: cell-based. The following applies: 1 μg/ml LPS 30 min, then 100 μg/ml CPPD 24 h; FIG. 2; p<0.001 compared to CPPD alone. Here is the method: as §1
(§2) In FIGS. 1 and 2, J774A.1 macrophages (1×10^5 cells/500 μl medium/well) were incubated for 30 min with or without Ginsenoside M1, then for 30 min with or without 1 μg/ml LPS (from Escherichia coli 0111:B4, purchased from Sigma, St. Louis, Mo.) in the continued presence or absence of Ginsenoside M1, and then for 24 h with or without 100 μg/ml MSU or 100 μg/ml CPPD (all purchased from InvivoGen, San Diego, Calif.). The levels of IL-1β in the culture medium were measured by ELISA.
(§3) For ELISA assay, 50 μl of biotinylated antibody reagent and 50 μl of culture medium were added to an anti-mouse IL-1β or IL-6 precoated stripwell plate, and incubated at room temperature for 2 h. […] Following the addition of 100 μl of provided stop solution to each well to stop the reaction, the absorbance of the plate was measured by a microplate reader at a 450 nm wavelength. […]

A further assay concerns C57BL/6 mice. Description: MSU-induced peritonitis in vivo (acute gout inflammation). On the set-up: species or system mouse. The following applies: 60 mg/kg oral by gavage day 0, 1, 2, 3 mg MSU i.p., p<0.001 compared to MSU-injection group. Here is the method: In FIG. 7-9, the animal experiments were conducted in accordance with the guidelines of the National Institutes of Health and approved by the Institutional Animal Care and Use Committee of National Ilan University. Male C57BL/6 mice were purchased from the National Laboratory Animal Center (Taipei, Taiwan). The animals were provided a chow diet and water ad libitum under conditions of 22-24° C., 40-70% relative humidity, and a 12 h light-dark cycle. Ginsenoside M1 (60 mg/kg body weight) was oral administered daily by gavage at day 0, 1 and 2. Acute gout inflammation was induced by intraperitoneal injection each mice with 3 mg of MSU in 0.5 mL of phosphate-buffered saline (PBS) at day 0 and day 2 1 h after Ginsenoside M1 administration. Control mice received 0.5 mL PBS without MSU (n=6). After 4 h, all mice were sacrificed using neck breaking, and the mice were intraperitoneally injected with 5 mL of PBS. The peritoneal fluid was then collected, and the volume of peritoneal fluid was about 4 mL from each mouse. The collected peritoneal exudate cells were washed and resuspended in PBS. The cells were stained with fluorescent antibodies against the neutrophils specific surface markers Ly-6G and CD45 (eBioscience, San Diego, Calif., USA) for 20 min at 37° C. in the dark, and the cell populations were sorted using a FACScan flow cytometer (Becton-Dickinson, San Jose, Calif.). The levels of IL-1β and IL-6 in the peritoneal fluid were measured by ELISA.
For ELISA assay, 50 μl of biotinylated antibody reagent and 50 μl of culture medium were added to an anti-mouse IL-1β or IL-6 precoated stripwell plate, and incubated at room temperature for 2 h. After washing the plate three times with washing buffer, 100 μl of diluted streptavidin-HRP (horseradish peroxidase) concentrate was added to each well and incubated at room temperature for 30 min. […] Following the addition of 100 μl of provided stop solution to each well to stop the reaction, the absorbance of the plate was measured by a microplate reader at a 450 nm wavelength.

In assay [3] the test system is mouse J774A.1 macrophages. Description: MSU-induced IL-1β production in LPS-primed J774A.1 macrophages (ELISA). It is filed as cell-based. The conditions noted are these: 1 μg/ml LPS 30 min, then 100 μg/ml MSU 24 h; FIG. 1; p<0.001 compared to MSU alone. The method, then:
as §1, §2, §3
In general terms: An ELISA detects its analyte on a solid surface through an enzyme-linked reagent.

A further assay has as its system human THP-1 macrophages. The experiment in a line: MSU-induced IL-1β, TNF-α and IL-6 production in LPS-primed THP-1 macrophages (ELISA). Type of assay: cell-based. The following applies: 1 μg/ml LPS 6 h, then 100 μg/ml MSU 24 h. Here is the method:
as §1
In FIG. 4-6, THP-1 macrophages (1×10^5 cells/500 μl medium/well) were incubated for 6 h with or without 1 μg/ml LPS, then for 30 min with or without Ginsenoside M1, in the continued presence or absence of LPS, and then for 24 h with or without 100 μg/ml MSU. The levels of IL-1β in the culture medium were measured by ELISA.
For ELISA assay, 50 μl of biotinylated antibody reagent and 50 μl of culture medium were added to an anti-mouse IL-1β or IL-6 precoated stripwell plate, and incubated at room temperature for 2 h. After washing the plate three times with washing buffer, 100 μl of diluted streptavidin-HRP (horseradish peroxidase) concentrate was added to each well and incubated at room temperature for 30 min. The washing process was repeated; then 100 μl of a premixed tetramethylbenzidine substrate solution was added to each well and developed at room temperature in the dark for 30 min. Following the addition of 100 μl of provided stop solution to each well to stop the reaction, the absorbance of the plate was measured by a microplate reader at a 450 nm wavelength.
To confirm the anti-inflammatory activities of Ginsenoside M1, human THP-1 macrophages were incubated for 6 h with or without 1 μg/ml LPS, then for 30 min with or without Ginsenoside M1, in the continued presence or absence of LPS, and then for 24 h with or without 100 μg/ml MSU. The levels of IL-1β in the culture medium were measured by ELISA.

Turning to `CC(C)=CCC[C@](C)(O[C@@H]1OC(CO)[C@@H](O)[C@@H](O)C1O)[C@H]1CC[C@]2(C)C1[C@H](O)CC1[C@@]3(C)CC[C@H](O)C(C)(C)C3CC[C@]12C` (stereo partly drawn) [Ginsenoside M1, 20-O-β-D-glucopyranosyl-20(S)-protopanaxadiol], in assay [1], the “level of NLRP3 in the cell lysates” value is on record as “reduced” and the “level of proIL-1β in the cell lysates” value is listed as “reduced”. Further, the “IL-1β secretion in the culture medium” value in assay [2] is “reduced”. For the same compound, the “MSU-induced IL-1β production in the murine peritoneal fluid” value in the assay on C57BL/6 mice (FIG. 7) is on record as “significantly reduced”. Further, in the assay on C57BL/6 mice (FIG. 8), the “MSU-induced IL-6 production in the murine peritoneal fluid” value is listed as “significantly reduced”. For the same compound, the “levels of MSU-induced Ly-6G+ neutrophils in the peritoneal fluid” value with C57BL/6 mice (flow cytometry, FIG. 9) is reported as “significantly reduces”. Also, the “IL-1β secretion in the culture medium” value in assay [3] is on record as “reduced”. In addition, the “IL-1β production in the culture medium” value with human THP-1 macrophages (FIG. 4, p<0.05 and p<0.001 compared to MSU alone) is “reduced”. The “TNF-α production in the culture medium” value with human THP-1 macrophages (FIG. 5, p<0.05 and p<0.001 compared to MSU alone) is given as “reduced”. The “IL-6 production in the culture medium” value with human THP-1 macrophages (FIG. 6, p<0.001 compared to MSU alone) is on record as “reduced”.
